# PubChem BioAssay (NCI)
#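 Cells were grown in 96-well plates and exposed to each compound for 48 hours at five concentrations; endpoints were interpolated linearly between bracketing concentrations, or set to the highest concentration if not reached. GI50 = concentration required for 50% inhibition of growth. At the TGI there is no net growth.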
# Legend:
# Assay in all cases: NCI-60 cell line screen, 48 h
# [1] = tested on: 786-0 renal
# [2] = tested on: HL-60(TB) leukemia
# [3] = tested on: MDA-MB-435
# [4] = tested on: LOX IMVI melanoma
# [5] = tested on: PC-3 prostate
# [6] = tested on: HS 578T breast
# [7] = tested on: ACHN renal
# [8] = tested on: UO-31 renal
# [9] = tested on: SF-539 CNS
# [10] = tested on: HCT-116 colon
Compound,TGI [1] [µM],TGI [2] [µM],TGI [3] [µM],TGI [4] [µM],TGI [5] [µM],TGI [6] [µM],TGI [7] [µM],GI50 [8] [µM],TGI [8] [µM],TGI [9] [µM],TGI [10] [µM],GI50 [1] [µM],GI50 [2] [µM],GI50 [3] [µM],GI50 [4] [µM],GI50 [5] [µM],GI50 [6] [µM],GI50 [7] [µM],GI50 [9] [µM],GI50 [10] [µM]
CCOP(=O)(OCC)/C(=C/n1c(=S)[nH]c2ccccc21)C(=O)OC,> 100,> 100,> 100,> 100,> 100,> 100,> 100,> 100,> 100,> 100,> 100,–,–,–,–,–,–,–,–,–
CCCCCCCCN(CCCCCCCC)CC(O)c1cc(-c2ccccc2)nc2ccc(OC)cc12 (stereo unspecified),> 100,52.2,> 100,34.7,> 100,> 100,> 100,34.4,> 100,64.8,68.4,> 100,18,32.1,12.6,47.7,> 100,> 100,22.3,15.7
[N-]=[N+]=C(C(=O)CN1CCCC1=O)S(=O)(=O)c1ccccc1,> 100,> 100,> 100,> 100,> 100,> 100,> 100,–,> 100,> 100,> 100,–,–,–,–,–,–,–,–,–
Cc1nnc(N/N=C/c2ccc([N+](=O)[O-])o2)[nH]c1=O,15.3,> 100,> 100,> 100,> 100,40.8,4.58,0.931,10.8,> 51.6,> 100,0.649,2.5,0.908,0.659,0.512,0.425,0.603,0.447,0.57
CC1=CC(C)=N/C(=N/S(=O)(=O)c2cc(C)c(Cl)cc2SCc2ccccc2)NN1,> 100,> 100,> 100,> 100,> 100,> 100,> 100,> 100,> 100,> 100,> 100,> 100,> 100,> 100,> 100,> 100,> 100,> 100,81.1,> 100
CC(NNC(=S)N1CCN(c2ccccn2)CC1)c1nccc2ccccc12 (stereo unspecified),13,1.18,17,11.2,14.9,61.6,10.9,–,8.34,6.43,9.29,–,–,–,–,–,–,–,–,–
COC(=O)Nc1nc2ccc(C(=O)c3cccc(I)c3)cc2[nH]1,6.15,0.163,0.051,3.92,6.18,25.7,21.1,0.316,17.2,0.384,13.8,0.0848,0.0315,0.0211,0.0612,0.0457,0.0904,0.13,0.0589,0.0402
COc1ccc(C(=O)/C=C/c2ccc(OCc3cccc(C(F)(F)F)c3)c(OC)c2)cc1OC,> 1000,70.9,> 1000,> 1000,> 1000,> 1000,> 1000,47.3,> 1000,> 1000,> 1000,67.3,24.8,45.8,32.8,61.4,92.4,52.8,65.3,34.9
O=C1/C=C/[C@@H](O)[C@@H]2C[C@@H](O)C[C@H]2/C=C/CCC[C@H](CCO)O1,0.142,1.16,> 100,0.377,> 100,> 100,> 100,0.22,> 100,> 100,0.454,0.0362,0.315,0.254,0.157,0.367,0.0519,0.343,0.469,0.215
Nc1ccc(C#Cc2ccccc2C#CCCCCO)cc1,27.5,44,36.6,29.7,28.9,64.7,27.5,16.6,30.5,33.9,28.2,13.8,23.4,19.7,16.2,15.6,26.8,14.5,17.6,14.3
Cc1ccsc1C(NC(=O)c1ccccc1)c1cc(Cl)c2cccnc2c1O (stereo unspecified),11.4,5.07,17.2,2.32,16.6,19.7,11.2,0.334,2.51,10.4,13.1,1.19,0.808,0.505,0.504,0.45,0.379,0.45,0.479,0.431
COc1cc2ncnc(Oc3ccc(NC(=O)Nc4ccc(CN5CCOCC5)c(C(F)(F)F)c4)c4ccccc34)c2cc1OC,6.74,2.76,2.83,2.82,9.36,7.27,1.41,0.189,2.98,16.1,2.55,0.831,0.502,0.436,1.09,1.75,1.28,0.303,1.36,0.802
Cc1cc(I)cc(CN(C)CCCN2CCC(C)CC2)c1O,26.2,31.6,25,31.4,29.7,26.2,30.7,11.4,24.8,27.5,22.1,13.4,12.5,11.6,15.5,14.1,12.1,16.3,14,10.4
